Results reported in US20240317734A1, “BI-FUNCTIONAL COMPOUNDS AND METHODS FOR TARGETED UBIQUITINATION OF ANDROGEN RECEPTOR” (MONTELINO THERAPEUTICS, INC., priority 2021, published 2024).

System: 22Rv1-Enz^R
Experiment: 22Rv1-Enz^R cell proliferation assay
Format: cell-based
Settings: human prostate cancer cell line 22Rv1-Enz^R; 6-day culture, cell media changed every 24 hours; half maximal growth inhibition constant; read-out: 22Rv1-Enz^R proliferation assay GIC50
Procedure: The human prostate cancer cell line, 22Rv1 has been reported to express a high level of AR-V7. According to one procedure, 22Rv1 is seeded at 50,000 cells/well on a 24-well plate in quadruplicate and treated with test compounds in concentrations ranging up to 20 μM for four days. Standard culture media is RPMI-1640 supplemented with 10% fetal bovine serum. The test compound initially is dissolved in DMSO at 50 mM. This stock solution is then diluted as needed for the indicated concentrations. At the end of the four-day period, cells are harvested using 1% trypsin and counted using an automated cell counter.
Cell Culture. Human CaP cell lines, LNCaP, 22Rv1, VCaP, PC3, and DU145 are obtained from the American Type Culture Collection (ATCC) and maintained in the standard culture media: RPMI-1640 supplemented with 10% fetal bovine serum (FBS). LNCaP, 22Rv1, and VCaP are androgen-responsive cell lines, while PC3 and DU145 are not. To establish SAT resistant CaP cell lines, LNCaP, 22Rv1, and VCaP are treated continuously with 10-50 μM abiraterone, apalutamide, darolutamide, or enzalutamide. After 3-6 months, stable cell lines are established and designated as LNCaP-Abi^R, LNCaP-Apa^R, LNCap-Daro^R, LNcaP-Enz^R, VcaP-Abi^R, VCaP-Apa^R, VCaP-Daro^R, VCaP-Enz^R, 22Rv1-Abi^R, 22Rv1-Apa^R, 22Rv1-Daro^R, and 22Rv1-Enz^R. Unless otherwise specified, the standard culture media for these SAT-resistant cell lines included 10 μM of their respective SAT. For the proteasome inhibitor study, the inhibitors MG132 and Epoxomicin are used. The E3 ligase inhibitors Heclin, Nutlin 3a, Thalidomide, and VH298 are used. Cell lines obtained from ATCC are confirmed by checking their morphology using optical microscopy, establishing baselines for cell proliferation, verifying species of origin using isoenzymology, and characterizing the cell's DNA fingerprint using short tandem repeat (STR) profiling. Mycoplasma contamination is also assessed using a PCR based detection system.
Selected compounds may be tested in the human prostate cancer cell line, 22Rv1-Enz^R, as described in Geun Tack Lee et al., Molecular Cancer Therapeutics, 20:490-9 (2021). These procedures are similar to that described in Experimental Example 1, above, except that the assay conditions are a 6-day culture with cell media changed every 24 hours.

IC50 [µM] | Structure (SMILES)
< 100 | O=C(COc1c(-c2csc(N3CCOCC3)n2)ccc(F)c1F)NCCCCNc1ccc2nnn(C3CCC(=O)NC3=O)c(=O)c2c1 (stereo not shown) [Example 1, 2-(2,3-difluoro-6-(2-morpholinothiazol-4-yl)phenoxy)-N-(4-((3-(2,6-dioxopiperidin-3-yl)-4-oxo-3,4-dihydrobenzo[d][1,2,3]triazin-6-yl)amino)butyl)acetamide]
< 10 | O=C(COc1c(-c2csc(N3CCOCC3)n2)ccc(F)c1F)NCCCCCCCCCCNc1ccc2nnn(C3CCC(=O)NC3=O)c(=O)c2c1 (stereo not shown) [Example 4, 2-(2,3-difluoro-6-(2-morpholinothiazol-4-yl)phenoxy)-N-(10-((3-(2,6-dioxopiperidin-3-yl)-4-oxo-3,4-dihydrobenzo[d][1,2,3]triazin-6-yl)amino)decyl)acetamide]
< 100 | O=C1CCC(n2nnc3ccc(NCCOCCOCCOc4c(-c5csc(N6CCOCC6)n5)ccc(F)c4F)cc3c2=O)C(=O)N1 (stereo not shown) [Example 3, 3-(6-((2-(2-(2-(2,3-difluoro-6-(2-morpholinothiazol-4-yl)phenoxy)ethoxy)ethoxy)ethyl)amino)-4-oxobenzo[d][1,2,3]triazin-3(4H)-yl)piperidine-2,6-dione]
< 10 | O=C(COc1c(-c2csc(N3CCOCC3)n2)ccc(F)c1F)NCCCCCCNc1ccc2nnn(C3CCC(=O)NC3=O)c(=O)c2c1 (stereo not shown) [Example 2, 2-(2,3-difluoro-6-(2-morpholinothiazol-4-yl)phenoxy)-N-(6-((3-(2,6-dioxopiperidin-3-yl)-4-oxo-3,4-dihydrobenzo[d][1,2,3]triazin-6-yl)amino)hexyl)acetamide]
